From US9682978B2, “2,6,7 substituted purines as HDM2 inhibitors” (Merck Sharp & Dohme Corp., priority 2013, dated 2017)

Molecular target: T1, HDM2 (Homo sapiens, UniProt Q00987)
T1 construct: Thioredoxin (N); made in house; host or cells: E. coli BL21(DE3)Rosetta (pET32a)
Experiment: HDM2 FRET assay (inhibition of p53 peptide binding to HDM2)
Details: for IC50: truncated HDM2 residues 17 to 125, 0.5 nM HDM2, 3 nM FITC labeled 8-mer peptide, two hour incubation; for inhibition at 1 µM: Table 1, printed in the FRET IC50 column, at 1000 nM compound
From the text: Methods: An HDM2 FRET assay was developed to assess the compounds' inhibitory activity towards binding of p53 protein. A truncated version of HDM2 with residues 17 to 125 (containing p53 binding surface, Science (1994) 265, 346-355), with N-terminal His and Thioredoxin tag was generated in pET32a expression vector and expressed in E. coli strain BL21(DE3)Rosetta. Protein was purified using Ni-affinity chromatography, followed by size exclusion chromatography using Superdex 75 26/60 column. To assess inhibition of p53 binding to HDM2, a FITC labeled 8-mer peptide (sequence: Ac-Phe-Arg-Dpr-Ac6c-(6-Br)Trp-Glu-Glu-Leu-NH2; Anal Biochem. 2004 Aug. 1; 331(1):138-46) with strong affinity towards p53 binding pocket of HDM2 was used. The HDM2 assay buffer contained 1× Phosphate Buffered Saline (Invitrogen, Cat#14190), 0.01% BSA (Jackson ImmunoResearch, Cat#001-000-162), 0.01% Tween-20. In the 1× assay buffer recombinant HDM2 protein, peptide and Lumi4-Tb Cryptate-conjugate mouse anti-6×HIS antibody (cisbio, Cat#Tb61HISTLB) were added and transferred to ProxiPlate PLUS (PerkinElmer, Cat#6008269), containing compounds so that final DMSO concentration is 0.1%. Final concentrations of reagents in the assay wells are 0.5 nM HDM2, 0.25 nM anti HIS (Tb label) antibody and 3 nM peptide. After two hour incubation at room temperature in a humidified chamber plates were read on EnVision plate reader with the following settings: excitation: UV, […], two emission filters: 520 nm and 495 nm respectively. Ratio of em520/em495 was used to calculate % inhibition and to obtain IC50 with 4-parameter logistic equation.
IC50 DETERMINATIONS: Dose-response curves were plotted from the inhibition data, from 10 point serial dilutions of inhibitory compounds. Concentration of compound was plotted against em520/Cem495 ratio signal. To generate IC50 values, the dose-response curves were fitted to a standard sigmoidal curve and IC50 values were derived by nonlinear regression analysis. IC50 values in the above table are rounded to the nearest integer.

T1 sequence (Q00987 17-125): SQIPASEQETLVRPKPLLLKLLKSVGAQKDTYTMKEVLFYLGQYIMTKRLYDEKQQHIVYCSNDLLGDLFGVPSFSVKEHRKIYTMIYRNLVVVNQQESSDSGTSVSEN

SMILES: C[C@@H](Nc1nc(C(=O)O)nc2ncn(Cc3cc4ccccc4s3)c12)C1CC1 [Example 1.8, 7-(1-benzothiophen-2-ylmethyl)-6-{[(1R)-1-cyclopropylethyl]amino}-7H-purine-2-carboxylic acid]
- IC50 (Table 1): 2420 nM

SMILES: CC1CCCN(c2nc(-c3noc(=O)[nH]3)nc3ncn(C[C@H]4CC[C@H](C)CC4)c23)C1 (stereo partly drawn) [Example 1.11, 3-{7-[(trans-4-methylcyclohexyl)methyl]-6-(3-methylpiperidin-1-yl)-7H-purin-2-yl}-1,2,4-oxadiazol-5(4H)-one]
- inhibition at 1 µM: 43%

SMILES: C[C@@H](Nc1nc(-c2noc(=O)[nH]2)nc2ncn(C[C@H]3CC[C@H](C(F)(F)F)CC3)c12)C1CCC1 [Example 3.1, 3-(6-{[(1R)-1-cyclobutylethyl]amino}-7-{[trans-4-(trifluoromethyl)cyclohexyl]methyl}-7H-purin-2-yl)-1,2,4-oxadiazol-5(4H)-one]
- IC50 (Table 3): 116 nM

SMILES: C[C@H]1CC[C@H](Cn2cnc3nc(-c4noc(=O)[nH]4)nc(-c4cncc(Cl)c4)c32)CC1 [Example 2.12, 3-{6-(5-chloropyridin-3-yl)-7-[(trans-4-methylcyclohexyl)methyl]-7H-purin-2-yl}-1,2,4-oxadiazol-5(4H)-one]
- IC50 (Table 2): 86 nM

SMILES: COCCOc1cc(Cl)cc(-c2nc(-c3noc(=O)[nH]3)nc3ncn(C[C@H]4CC[C@H](C)CC4)c23)c1 [Example 2.22, 3-{6-[3-chloro-5-(2-methoxyethoxyl)phenyl]-7-[(trans-4-methylcyclohexyl)methyl]-7H-purin-2-yl}-1,2,4-oxadiazol-5(4H)-one]
- IC50 (Table 2): 68.5 nM

SMILES: C[C@H]1CC[C@H](Cn2cnc3nc(-c4noc(=O)[nH]4)nc(-c4cc(Cl)cc(C#N)c4)c32)CC1 [Example 2.4, 3-chloro-5-{7-[(trans-4-methylcyclohexyl)methyl]-2-(5-oxo-4,5-dihydro-1,2,4-oxadiazol-3-yl)-7H-purin-6-yl}benzonitrile]
- IC50 (Table 2): 413 nM

SMILES: Cc1ncc(Cl)cc1-c1nc(-c2noc(=O)[nH]2)nc2ncn(C[C@H]3CC[C@H](C)CC3)c12 [Example 2.21, 3-{6-(5-chloro-2-methylpyridin-3-yl)-7-[(trans-4-methylcyclohexyl)methyl]-7H-purin-2-yl}-1,2,4-oxadiazol-5(4H)-one]
- IC50 (Table 2): 87.8 nM

SMILES: C[C@@H](Nc1nc(-c2nc(=O)n(C)[nH]2)nc2ncn(C[C@H]3CC[C@H](C)CC3)c12)C1CCC1 [Example 1.3, 5-(6-{[(1R)-1-cyclobutylethyl]amino}-7-[(trans-4-methylcyclohexyl)methyl]-7H-purin-2-yl)-2-methyl-1,2-dihydro-3H-1,2,4-triazol-3-one]
- IC50 (Table 1): 71.1 nM

SMILES: COC(=O)c1cc(C)cc(-c2nc(-c3noc(=O)[nH]3)nc3ncn(C[C@H]4CC[C@H](C)CC4)c23)c1 [Example 2.19, methyl 3-methyl-5-{7-[(trans-4-methylcyclohexyl)methyl]-2-(5-oxo-4,5-dihydro-1,2,4-oxadiazol-3-yl)-7H-purin-6-yl}benzoate]
- IC50 (Table 2): 579 nM

SMILES: C[C@@H](Nc1nc(-c2n[nH]c(=O)o2)nc2ncn(C[C@H]3CC[C@H](C)CC3)c12)C1CCC1 [Example 1.15, 5-(6-{[(1R)-1-cyclobutylethyl]amino}-7-[(trans-4-methylcyclohexyl)methyl]-7H-purin-2-yl)-1,3,4-oxadiazol-2(3H)-one]
- IC50 (Table 1): 52.5 nM

SMILES: CNC(=O)c1cc(Cl)cc(-c2nc(-c3noc(=O)[nH]3)nc3ncn(C[C@H]4CC[C@H](C)CC4)c23)c1 [Example 2.10, 3-chloro-N-methyl-5-{7-[(trans-4-methylcyclohexyl)methyl]-2-(5-oxo-4,5-dihydro-1,2,4-oxadiazol-3-yl)-7H-purin-6-yl}benzamide]
- IC50 (Table 2): 71.8 nM

SMILES: COCOc1cc(Cl)cc(-c2nc(-c3noc(=O)[nH]3)nc3ncn(C[C@H]4CC[C@H](C)CC4)c23)c1 [Example 2.14, 3-{6-[3-chloro-5-(methoxymethoxy)phenyl]-7-[(trans-4-methylcyclohexyl)methyl]-7H-purin-2-yl}-1,2,4-oxadiazol-5(4H)-one]
- IC50 (Table 2): 41.7 nM

SMILES: C[C@H]1CC[C@H](Cn2cnc3nc(-c4noc(=O)[nH]4)nc(N4CCCC(C(F)(F)F)C4)c32)CC1 (stereo partly drawn) [Example 1.10, 3-{7-[(trans-4-methylcyclohexyl)methyl]-6-[3-(trifluoromethyl)piperidin-1-yl]-7H-purin-2-yl}-1,2,4-oxadiazol-5(4H)-one]
- inhibition at 1 µM: 37%

SMILES: C[C@@H](Nc1nc(-c2n[nH]c(=O)n2C)nc2ncn(C[C@H]3CC[C@H](C)CC3)c12)C1CCC1 [Example 1.16, 5-(6-{[(1R)-1-cyclobutylethyl]amino}-7-[(trans-4-methylcyclohexyl)methyl]-7H-purin-2-yl)-4-methyl-2,4-dihydro-3H-1,2,4-triazol-3-one]
- IC50 (Table 1): 241 nM

SMILES: C=C1CCC(Cn2cnc3nc(C(=O)O)nc(N[C@H](C)C4CCC4)c32)CC1 [Example 3.8, 6-{[(1R)-1-cyclobutylethyl]amino}-7-[(4-methylidenecyclohexyl)methyl]-7H-purine-2-carboxylic acid]
- IC50 (Table 3): 677 nM

SMILES: CCC1CCC(Cn2cnc3nc(C(=O)O)nc(N[C@H](C)C4CCC4)c32)C1 (single isomer, unassigned) [Example 3.12]
- IC50 (Table 3): 146 nM

SMILES: C[C@H]1CC[C@H](Cn2cnc3nc(-c4noc(=O)[nH]4)nc(-c4cc(Cl)cc(C(N)=O)c4)c32)CC1 [Example 2.13, 3-chloro-5-{7-[(trans-4-methylcyclohexyl)methyl]-2-(5-oxo-4,5-dihydro-1,2,4-oxadiazol-3-yl)-7H-purin-6-yl}benzamide]
- IC50 (Table 2): 50.8 nM

SMILES: C[C@H]1CC[C@H](Cn2cnc3nc(-c4noc(=O)[nH]4)nc(-c4ccnc(Cl)c4F)c32)CC1 [Example 2.2, 3-{6-(2-chloro-3-fluoropyridin-4-yl)-7-[(trans-4-methylcyclohexyl)methyl]-7H-purin-2-yl}-1,2,4-oxadiazol-5(4H)-one]
- IC50 (Table 2): 134 nM

SMILES: CC([C@H]1CC[C@H](C)CC1)n1cnc2nc(-c3noc(=O)[nH]3)nc(N[C@H](C)C3CCC3)c21 (stereo partly drawn) [Example 3.18, 3-(6-{[(1R)-1-cyclobutylethyl]amino}-7-[1-(trans-4-methylcyclohexyl)ethyl]-7H-purin-2-yl)-1,2,4-oxadiazol-5(4H)-one]
- IC50 (Table 3): 17 nM

SMILES: CCC1CCC(Cn2cnc3nc(C(=O)O)nc(N[C@H](C)C4CCC4)c32)C1 (single isomer, unassigned) [Example 3.13]
- IC50 (Table 3): 510 nM

SMILES: C[C@@H](Nc1nc(C(=O)O)nc2ncn(Cc3ccc(C(F)(F)F)cc3)c12)C1CC1 [Example 1.1, 6-{[(1R)-1-cyclopropylethyl]amino}-7-[4-(trifluoromethyl)benzyl]-7H-purine-2-carboxylic acid]
- IC50 (Table 1): 1140 nM

SMILES: C=C1CCC(Cn2cnc3nc(-c4noc(=O)[nH]4)nc(N[C@H](C)C4CCC4)c32)CC1 [Example 3.7, 3-(6-{[(1R)-1-cyclobutylethyl]amino}-7-[(4-methylidenecyclohexyl)methyl]-7H-purin-2-yl)-1,2,4-oxadiazol-5(4H)-one]
- IC50 (Table 3): 543 nM

SMILES: C[C@H]1CC[C@H](Cn2cnc3nc(-c4noc(=O)[nH]4)nc(Oc4cccc(Cl)c4)c32)CC1 [Example 1.5, 3-{6-(3-chlorophenoxy)-7-[(trans-4-methylcyclohexyl)methyl]-7H-purin-2-yl}-1,2,4-oxadiazol-5(4H)-one]
- IC50 (Table 1): 392 nM

SMILES: C[C@@H]1CC[C@@H](Cn2cnc3nc(-c4noc(=O)[nH]4)nc(N[C@H](C)C4CCC4)c32)CC1(F)F (stereo in doubt) [Example 3.5, 3-(6-{[(1R)-1-cyclobutylethyl]amino}-7-{[(trans)-3,3-difluoro-4-methylcyclohexyl]methyl}-7H-purin-2-yl)-1,2,4-oxadiazol-5(4H)-one]
- IC50 (Table 3): 198 nM

SMILES: C[C@H]1CC[C@H](Cn2cnc3nc(C(=O)O)nc(-c4cncc(Cl)c4)c32)CC1 [Example 2.20, 6-(5-chloropyridin-3-yl)-7-[(trans-4-methylcyclohexyl)methyl]-7H-purine-2-carboxylic acid]
- IC50 (Table 2): 213 nM

SMILES: CS(=O)(=O)c1cc(Cl)cc(-c2nc(-c3noc(=O)[nH]3)nc3ncn(C[C@H]4CC[C@H](C)CC4)c23)c1 [Example 2.17, 3-{6-[3-chloro-5-(methylsulfonyl)phenyl]-7-[(trans-4-methylcyclohexyl)methyl]-7H-purin-2-yl}-1,2,4-oxadiazol-5(4H)-one]
- IC50 (Table 2): 250 nM

SMILES: C[C@@H](Nc1nc(-c2noc(=O)[nH]2)nc2ncn(CC3CCC4(CC3)CC4)c12)C1CCC1 [Example 3.3, 3-[6-{[(1R)-1-cyclobutylethyl]amino}-7-(spiro[2.5]oct-6-ylmethyl)-7H-purin-2-yl]-1,2,4-oxadiazol-5(4H)-one]
- IC50 (Table 3): 1430 nM
